Patent US8362000B2, “Azetidinyl diamides as monoacylglycerol lipase inhibitors” (Janssen Pharmaceutica NV, priority 2009, dated 2013)
Residue numbers refer to the chain shown, from its start. Like-named read-outs stand apart in the source and are kept apart here.

What was measured:
[1] = molecular target: T1, purified wild type MGL (wt-MGLL 6H-11-313) (Homo sapiens, UniProt Q99685)
T1 sequence (Q99685 1-303): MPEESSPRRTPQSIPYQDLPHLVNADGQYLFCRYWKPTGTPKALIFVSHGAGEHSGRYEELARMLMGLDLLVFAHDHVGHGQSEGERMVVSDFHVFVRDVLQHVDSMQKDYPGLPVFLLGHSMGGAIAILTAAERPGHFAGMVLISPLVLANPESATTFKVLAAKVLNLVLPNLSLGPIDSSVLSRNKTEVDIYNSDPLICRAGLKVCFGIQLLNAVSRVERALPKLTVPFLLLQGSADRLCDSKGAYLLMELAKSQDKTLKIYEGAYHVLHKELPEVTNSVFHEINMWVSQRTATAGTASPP

mutant MGL = molecular target: T2, mutant MGL (Homo sapiens, UniProt Q99685, L169S/L176S); experiment: MGL ThermoFluor assay - mutant; type: binding
T2 sequence (Q99685 1-303 L169S/L176S): T1 sequence (Q99685 1-303) with L169S, L176S

MGL = molecular target: T3, MGL (Rattus norvegicus, UniProt Q8R431); experiment: 2-AG accumulation assay in rat brain homogenate; type: biochemical; conditions: rat brain homogenate, 2-AG accumulation as percent of vehicle; for 2-AG accumulation, % of vehicle control at 1 µM: compound 1 μM, read-out: Rat Brain 2AG % VehCntrl (%) @ 1 μM; for 2-AG accumulation, % of vehicle control at 10 µM: compound 10 μM, read-out: Rat Brain 2AG % VehCntrl (%) @ 10 μM
T3 construct: one g rat brain was homogenized using a Polytron homogenizer; from tissue; host or cells: rat brain homogenate
T3 sequence (Q8R431 1-303): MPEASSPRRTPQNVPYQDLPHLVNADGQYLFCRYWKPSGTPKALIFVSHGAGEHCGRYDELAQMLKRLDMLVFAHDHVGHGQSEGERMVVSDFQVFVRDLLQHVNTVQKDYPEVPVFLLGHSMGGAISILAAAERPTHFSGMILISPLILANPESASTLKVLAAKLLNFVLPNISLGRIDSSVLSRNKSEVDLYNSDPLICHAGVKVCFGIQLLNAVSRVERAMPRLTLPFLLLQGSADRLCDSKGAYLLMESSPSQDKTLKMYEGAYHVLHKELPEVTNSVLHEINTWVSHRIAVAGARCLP

[2] = ThermoFluor concentration-response, read-out: MGL mutant ThermoFluor Kd
[3] = ThermoFluor, compound concentration measured by qNMR, read-out: MGL mutant ThermoFluor qKd (using qNMR conc.)
[4] = ThermoFluor, compound concentration measured by qNMR, read-out: MGL mutant ThermoFluor qKd (μM) (using qNMR conc.)

SMILES | IC50 [1] | 2-AG accumulation, % of vehicle control at 1 µM (MGL) | further results
O=C(c1ccc(Oc2cc(C(F)(F)F)ccc2F)nc1)N1CC(N2CCN(C(=O)c3nccs3)CC2)C1 [Cpd 878] | < 0.005 µM | 288% | Kd (mutant MGL; [2]): 0.088 µM
Cc1c(C(=O)N2CC(N3CCN(C(=O)c4nccs4)CC3)C2)[nH]c2ccc(Br)cc12 [Cpd 682] | 0.03 µM | 390% | Kd (mutant MGL; [3]): 0.014 µM
Cn1nc(-c2ccccc2)c2cc(C(=O)N3CC(N4CCN(C(=O)c5nccs5)CC4)C3)ccc21 [Cpd 1137, 1-Methyl-3-phenyl-5-({3-[4-(1,3-thiazol-2-ylcarbonyl)piperazin-1-yl]azetidin-1-yl}carbonyl)-1H-indazole] | 0.026 µM | 582% | Kd (mutant MGL; [2]): 0.01 µM
COc1ccc(-n2ccc3cc(C(=O)N4CC(N5CCN(C(=O)c6nccs6)CC5)C4)ccc32)cn1 [Cpd 1072, 1-(6-Methoxypyridin-3-yl)-5-({3-[4-(1,3-thiazol-2-ylcarbonyl)piperazin-1-yl]azetidin-1-yl}carbonyl)-1H-indole] | 0.008 µM | 839% | Kd (mutant MGL; [3]): 0.007 µM
O=C(c1cscn1)N1CCN(C2CN(C(=O)c3sc4cc(Cl)ccc4c3C(F)(F)F)C2)CC1 [Cpd 699] | 0.069 µM | 253% | Kd (mutant MGL; [2]): 0.041 µM
O=C(c1ccc2c(c1)CCN2c1ccc(F)cc1)N1CC(N2CCN(C(=O)c3nccs3)CC2)C1 [Cpd 885, 1-(4-Fluorophenyl)-5-({3-[4-(1,3-thiazol-2-ylcarbonyl)piperazin-1-yl]azetidin-1-yl}carbonyl)-2,3-dihydro-1H-indole] | < 0.005 µM | 722% | Kd (mutant MGL; compound concentration measured by qNMR, read-out: MGL mutant ThermoFluor qKd (using qNMR conc.)): 0.001 µM
O=C(c1cscn1)N1CCN(C2CN(C(=O)c3sc4c(C(F)(F)F)c(F)ccc4c3Cl)C2)CC1 [Cpd 697] | 0.062 µM | 431% | Kd (mutant MGL; [4]): 0.024 µM
O=C(c1ccc(C(F)c2ccc(C(F)(F)F)cc2)cc1)N1CC(N2CCN(C(=O)c3nccs3)CC2)C1 (stereo not drawn) [Cpd 982, 1-{1-[(4-{Fluoro[4-(trifluoromethyl)phenyl]methyl}phenyl)carbonyl]azetidin-3-yl}-4-(1,3-thiazol-2-ylcarbonyl)piperazine] | < 0.005 µM | 762% | Kd (mutant MGL; [2]): 0.01 µM
O=C(c1ccccc1)N1CCN(C2CN(C(=O)c3ccc4c(ccn4-c4ccc(OC(F)(F)F)cc4)c3)C2)CC1 [Cpd 573] | 0.046 µM | 277% | Kd (mutant MGL; [4]): 0.1 µM
O=C(c1ccc(OC(F)(F)F)c(Cl)c1)N1CC(N2CCN(C(=O)c3nccs3)CC2)C1 [Cpd 693] | 0.047 µM | 299% | Kd (mutant MGL; [2]): 0.06 µM
O=C(c1ccc(S(=O)(=O)c2cccc(Cl)c2)cc1)N1CC(N2CCN(C(=O)c3nccs3)CC2)C1 [Cpd 876] | < 0.005 µM | 363% | 
O=C(c1ccccc1)N1CCN(C2CN(C(=O)c3ccc(OCc4cccc(Cl)c4Cl)cc3)C2)CC1 [Cpd 381, 1-[1-({4-[(2,3-Dichlorobenzyl)oxy]phenyl}carbonyl)azetidin-3-yl]-4-(phenylcarbonyl)piperazine] | < 0.005 µM |  | 2-AG accumulation, % of vehicle control at 10 µM (MGL): 520%
O=C(c1cccc(C(F)(F)F)c1)N1CCc2cc(C(=O)N3CC(N4CCN(C(=O)c5nccs5)CC4)C3)ccc2C1 [Cpd 679, 6-({3-[4-(1,3-Thiazol-2-ylcarbonyl)piperazin-1-yl]azetidin-1-yl}carbonyl)-2-{[3-(trifluoromethyl)phenyl]carbonyl}-1,2,3,4-tetrahydroisoquinoline] | 0.024 µM | 751% | 
O=C(c1nccs1)N1CC(N2CCN(C(=O)c3ccc(-c4ccccc4)cc3)C(c3ccccc3)C2)C1 (stereo not drawn) [Cpd 43, 1-(Biphenyl-4-ylcarbonyl)-2-phenyl-4-[1-(1,3-thiazol-2-ylcarbonyl)azetidin-3-yl]piperazine] | 1.26 µM |  | 2-AG accumulation, % of vehicle control at 10 µM (MGL): 215%
Cn1cc(-c2ccc(C(F)(F)F)cc2)c2ccc(C(=O)N3CC(N4CCN(C(=O)c5cscn5)CC4)C3)cc21 [Cpd 1148] | 0.033 µM | 344% | 
O=C(c1ccc(-c2ccc(Cl)c(Cl)c2)cc1)N1CC(N2CCN(C(=O)c3nccs3)CC2)C1 [Cpd 175, 1-{1-[(3′,4′-Dichlorobiphenyl-4-yl)carbonyl]azetidin-3-yl}-4-(1,3-thiazol-2-ylcarbonyl)piperazine] | < 0.005 µM | 706% | 2-AG accumulation, % of vehicle control at 0.1 µM (MGL; compound 0.1 μM, read-out: Rat Brain 2AG % VehCntrl (%) @ 0.1 μM): 330%
O=C(c1ccccc1)N1CCN(C2CN(C(=O)c3ccc(-c4ccccc4OC(F)(F)F)cc3)C2)CC1 [Cpd 196, 1-(Phenylcarbonyl)-4-(1-{[2′-(trifluoromethoxy)biphenyl-4-yl]carbonyl}azetidin-3-yl)piperazine] | 0.216 µM |  | 2-AG accumulation, % of vehicle control at 10 µM (MGL): 516%
O=C(c1ccc(Cc2ccc(C(F)(F)F)cc2)cc1)N1CC(N2CCN(C(=O)c3cscn3)CC2)C1 [Cpd 999] | 0.008 µM | 458% | 
O=C(c1ccccc1)N1CCN(C2CN(C(=O)c3ccc(Oc4cc(C(F)(F)F)ccn4)cc3)C2)CC1 [Cpd 518] | 1.61 µM | 86% | 
O=C(c1ccc(Cc2cccc(C(F)(F)F)c2)cc1)N1CC(N2CCN(C(=O)c3cscn3)CC2)C1 [Cpd 998] | < 0.005 µM | 639% | 
O=C(c1ccc(Oc2cccc(C(F)(F)F)c2)nc1)N1CC(N2CCN(C(=O)c3cscn3)CC2)C1 [Cpd 689] | 0.045 µM | 136% | 
CS(=O)(=O)c1cccc(-c2ccc(C(=O)N3CC(N4CCN(C(=O)c5nccs5)CC4)C3)cc2)c1 [Cpd 208, 1-(1-{[3′-(Methylsulfonyl)biphenyl-4-yl]carbonyl}azetidin-3-yl)-4-(1,3-thiazol-2-ylcarbonyl)piperazine] | 0.092 µM | 480% | 2-AG accumulation, % of vehicle control at 10 µM (MGL): 324%
O=C(c1ccc(-c2ccc(C(F)(F)F)s2)cc1)N1CCN(C2CN(C(=O)c3cscn3)C2)CC1 [Cpd 1136] | 0.025 µM | 325% | 
CS(=O)(=O)Nc1cccc(-c2ccc(C(=O)N3CC(N4CCN(C(=O)c5nccs5)CC4)C3)cc2)c1 [Cpd 219, N-[4′-({3-[4-(1,3-Thiazol-2-ylcarbonyl)piperazin-1-yl]azetidin-1-yl}carbonyl)biphenyl-3-yl]methanesulfonamide] | 0.032 µM |  | 2-AG accumulation, % of vehicle control at 10 µM (MGL): 851%
Cn1cc(-c2ccc(C(F)(F)F)cc2)c2ccc(C(=O)N3CC(N4CCN(C(=O)c5nccs5)CC4)C3)cc21 [Cpd 1347] | < 0.005 µM | 741% | 
Cc1nc(-c2ccccc2)sc1C(=O)N1CC(N2CCN(C(=O)c3nccs3)CC2)C1 [Cpd 133, 1-{1-[(4-Methyl-2-phenyl-1,3-thiazol-5-yl)-carbonyl]azetidin-3-3yl}-4-(1,3-thiazol-2-ylcarbonyl)piperazine] | 0.0673 µM |  | 2-AG accumulation, % of vehicle control at 10 µM (MGL): 623%
O=C(c1ccc(-c2ccc(Cl)c(Cl)c2)cc1)N1CC(N2CCN(C(=O)c3cscn3)CC2)C1 [Cpd 228, 1-{1-[(3′,4′-Dichlorobiphenyl-4-yl)carbonyl]azetidin-3-yl}-4-(1,3-thiazol-4-ylcarbonyl)piperazine] | < 0.005 µM |  | 2-AG accumulation, % of vehicle control at 10 µM (MGL): 710%
Cn1cc(-c2ccccc2)c2ccc(C(=O)N3CC(N4CCN(C(=O)c5cscn5)CC4)C3)cc21 [Cpd 1155] | 0.041 µM | 617% | 
O=C(c1ccccc1)N1CCN(C2CN(C(=O)c3ccc(-c4ccccc4C(F)(F)F)cc3)C2)CC1 [Cpd 72, 1-(Phenylcarbonyl)-4-(1-{[2′-(trifluoromethyl)biphenyl-4-yl]carbonyl}azetidin-3-yl)piperazine] | 0.326 µM |  | 2-AG accumulation, % of vehicle control at 10 µM (MGL): 334%
O=C(c1ccc2c(-c3ccc(C(F)(F)F)cc3)ncnc2c1)N1CC(N2CCN(C(=O)c3nccs3)CC2)C1 [Cpd 1086] | 0.009 µM | 488% | 
